Where a name gives a salt, the structure may show the parent alone.
Experiments:
A. baumannii APV00473 = experiment: MIC, broth microdilution; assay type: cell-based; conditions: Acinetobacter baumannii; A. baumannii APV00473, ciprofloxacin-resistant
Method: (§1) MICs were determined by the broth microdilution method (the agar dilution method was used only for N. gonorrhoeae) according to CLSI guidelines.

A. baumannii ATCC 19606 = experiment: MIC, broth microdilution; assay type: cell-based; conditions: Acinetobacter baumannii, ATCC19606; A. baumannii ATCC 19606, ciprofloxacin-susceptible
Method: as §1

E. coli 4SI = experiment: MIC, broth microdilution; assay type: cell-based; conditions: Escherichia coli, ciprofloxacin-resistant
Method: as §1

S. pyogenes APV00074 = experiment: MIC, broth microdilution; assay type: cell-based; conditions: Streptococcus pyogenes; S. pyogenes APV00074, ciprofloxacin-susceptible
Method: as §1

C. difficile ATCC 700057 = experiment: MIC, broth microdilution; assay type: cell-based, Clostridium difficile; conditions: Clostridioides difficile, ATCC700057
Method: MICs were determined by the broth microdilution method (the agar dilution method was used only for N. gonorrhoeae) according to CLSI guidelines. […] The MIC values of antibiotics used in clinical practice were interpreted according to the susceptibility interpretive criteria reported in the appropriate CLSI Tables (M100-S25, CLSI, 2015).

[1] = system: H. influenzae AcrA- mutant; experiment: microbe, parasite or virus in culture; assay type: cell-based; conditions: Haemophilus influenzae
Method: (§2) The bacterial reference strains used in this study were purchased from ATCC (American Type Culture Collection) via LGC Standards (Middlesex, UK). […] Clinical MDR isolates were provided by Aptuit, the IHMA Europa Sàrl repository (Epalinges, Switzerland) and the Statens Serum Institute (Copenhagen, Denmark).
as §1

[2] = system: K. pneumoniae AcrAB- mutant; experiment: microbe, parasite or virus in culture; assay type: cell-based; conditions: Klebsiella pneumoniae
Method: as §2, §1

[3] = system: S. aureus clinical isolates (n = 10); experiment: microbe, parasite or virus in culture; assay type: cell-based, Staphylococcus aureus; conditions: S. aureus MDR clinical isolates (n = 10); for MIC50 / MIC90: Staphylococcus aureus; for MIC50: read-out: MIC50; for MIC90: read-out: MIC90
Method: as §2, §1
(§3) The results obtained using clinical isolates are reported as MIC50 and MIC90 values.

[4] = system: C. difficile clinical isolates (n = 21); experiment: MIC, multidrug-resistant clinical isolates; assay type: cell-based, Clostridium difficile; conditions: Clostridioides difficile, C. difficile clinical isolates (n = 21); for MIC50: read-out: MIC50; for MIC90: read-out: MIC90; for MIC: read-out: MIC range
Method: as §2, §1, §3

[5] = system: E. coli clinical isolates (n = 36); experiment: MIC, multidrug-resistant clinical isolates; assay type: cell-based, Escherichia coli; conditions: Escherichia coli, E. coli MDR clinical isolates (n = 36); for MIC50: read-out: MIC50; for MIC90: read-out: MIC90
Method: as §2, §1, §3

[6] = system: A. baumannii clinical isolates (n = 10); experiment: microbe, parasite or virus in culture; assay type: cell-based, Acinetobacter baumannii; conditions: for MIC50 / MIC90: Acinetobacter baumannii
Method: as §2, §1, §3

SMILES | MIC (A. baumannii APV00473) [µg/mL] | MIC (A. baumannii ATCC 19606) [µg/mL] | MIC (E. coli 4SI) [µg/mL] | MIC (S. pyogenes APV00074) [µg/mL] | MIC (C. difficile ATCC 700057) [µg/mL] | MIC [1] [µg/mL] | MIC [2] [µg/mL] | MIC range [3] [µg/mL] | MIC50 [3] [µg/mL] | MIC90 [3] [µg/mL] | MIC50 [4] [µg/mL] | MIC90 [4] [µg/mL] | MIC [4] [µg/mL] | MIC [5] [µg/mL] | MIC50 [5] [µg/mL] | MIC90 [5] [µg/mL] | MIC range [6] [µg/mL] | MIC50 [6] [µg/mL] | MIC90 [6] [µg/mL]
COc1cnc2ncc(=O)n([C@H]3CC[C@H](NCc4cc5c(=O)oc6ccc(F)cc6c5[nH]4)CC3)c2c1 [Compound 5, 8-Fluoro-2-({[trans-4-(7-methoxy-2-oxopyrido[2,3-b]pyrazin-1(2H)-yl)cyclohexyl]amino}methyl)[1]benzopyrano[4,3-b]pyrrol-4(1H)-one hydrochloride] | 0.5 | 1 | 0.5 | 0.12 | 0.25 | ≤ 0.016 | 0.03 | ≤0.06 to 0.5 | 0.12 | 0.5 | 0.5 | 1 | 0.06 to 1 | 0.5 to 16 | 2 | 4 | 0.25 to 1 | 0.5 | 1
Cl.O=c1oc2ccc(F)cc2c2[nH]c(CN[C@H]3CC[C@H](n4c(=O)ccc5ccc(F)cc54)CC3)cc12 [Compound 6, 8-fluoro-2-({[trans-4-(7-fluoro-2-oxoquinolin-1(2H)-yl)cyclohexyl]amino}methyl)[1]benzopyrano[4,3-b]pyrrol-4(1H)-one hydrochloride] |  |  |  |  | 0.5 |  |  |  |  |  | 0.25 | 0.25 | 0.06 to 0.25 | 0.25 to 4 | 2 | 4 |  |  | 
O=c1oc2ccc(F)cc2c2[nH]c(CN[C@H]3CC[C@H](n4c(=O)cnc5ncc(F)cc54)CC3)cc12 [Compound 4, 8-fluoro-2-({[trans-4-(7-fluoro-2-oxopyrido[2,3-b]pyrazin-1(2H)-yl)cyclohexyl]amino}methyl)[1]benzopyrano[4,3-b]pyrrol-4(1H)-one (formate salt)] | 0.12 | 0.5 | 0.25 | 0.12 |  | ≤ 0.016 | 0.03 | ≤0.06 to 0.5 | 0.12 | 0.5 |  |  |  |  |  |  | ≤0.06 to 0.5 | 0.25 | 0.5
Cl.O=c1oc2ccc(F)cc2c2[nH]c(CN[C@H]3CC[C@H](n4c(=O)ccc5ncc(F)cc54)CC3)cc12 [Compound 3, 8-fluoro-2-({[trans-4-(7-fluoro-2-oxo-1,5-naphthyridin-1(2H)-yl)cyclohexyl]amino}methyl)[1]benzopyrano[4,3-b]pyrrol-4(1H)-one hydrochloride] | ≤ 0.06 | ≤ 0.06 | 0.12 | ≤ 0.06 | 0.25 | 0.06 | ≤ 0.016 | ≤0.06 | ≤ 0.06 | ≤ 0.06 | 0.12 | 0.25 | 0.06 to 0.25 | 0.25 to 4 | 1 | 2 | ≤0.06 to 0.12 | ≤ 0.06 | 0.12

Source: publication PMC7029851, “Antibacterial activity of novel dual bacterial DNA type II topoisomerase inhibitors” (PLoS ONE, 2020)
